Assay results as given in US20090117653A1 (Governors of the University of Alberta, priority 2007, published 2009).

Tests used:
Assay type in all cases: cell-based, human
[1] = system: clonotypic MM cells in rBM (MM BMC); assay: Reduction of clonal cells in 3-D rBM culture, RQ-PCR with patient specific primers; conditions: rBM grown 14 days, single treatment 7 days, 7 days recovery
Description: (§1) For preclinical studies, the rBM was grown for 14 days to allow for stratification of the culture and expansion of the malignant cells and the stromal layer. A single treatment of either melphalan or bortezomib was administered in a fresh aliquot of Growth Medium overlaid on top of the 3-D culture. After 7 days of treatment, fresh medium was added and cells were allowed to recover for an additional period of 7 days, after which cells were isolated using the Cell Recovery Solution and the effects of treatment were analyzed, and for CFU activity of drug resistant LRC.
For real-time quantitative PCR (RQ-PCR), total genomic DNA was isolated with TRIzol™ reagent (Invitrogen, Burlington, ON) per manufacturer's instructions. […] Controls included cloned VDJ sequences for each patient used to generate a standard curve for the specific clonotypic sequence and comparison with a standard curve for a housekeeping gene, β2 microglobulin (normalized to the two copies of B2M templates/cell), to quantify the number of templates in unknown samples before and after 3-D culture. […]
FIG. 4a illustrates the reduction of the clonal cells as measured by RQ-PCR with patient specific primers (melphalan p=0.016, bortezomib p=0.39). […] Treatment of rBM with melphalan led to a 60% decrease in the number of clonotypic cells as measured by RQ-PCR.

[2] = system: rBM cells (MM BMC); CD138+/CD56+ population; assay: Apoptosis within rBM by flow cytometry measuring AnnexinV reactivity
Description: as §1
For flow cytometry, cells were isolated from 3-D cultures with Cell Recovery Solution, stained with various FITC tagged CD antigens or Annexin V-PE and analyzed by flow cytometry to measure the extent of proliferation and apoptosis using a FACSort flow cytometer (BD, Oakville, ON). Data was analyzed with CellQuest Pro software.
FIGS. 4a-d illustrate a comparative evaluation of two MM therapeutics in a 3-D BM cell culture assembly in accordance with various embodiments. […]
FIG. 4b illustrates apoptosis within rBM as assessed by flow cytometry measuring AnnexinV reactivity post treatment with melphalan (left panel) or bortezomib (middle panel). MM specific cell killing by bortezomib was monitored in the CD138+/CD56+ population by AnnexinV reactivity (right panel).

[3] = system: stromal compartment of rBM; conditions: brightfield microscopy; TRAP, Oil Red, ALP staining at rEnd; FIG. 4c, 4d
Description: as §1
For microscopy, confocal z-slices were imaged on a Carl Zeiss confocal LSM 510 microscope equipped with appropriate filters and the 3D reconstruction was done using Zeiss 510 image analysis software. Quantification of LRC positioning was performed with Imaris 3.2.2 software, Bitplane AG (Zurich, Switzerland). Stromal cells were stained with TRAP, Oil Red, Alkaline phosphatase, or Alizarin Red according to the manufacturer's instructions and imaged on Zeiss Axioskop digital microscope. For fibronectin, phalloidin and N-cadherin staining, cells were fixed with 1% neutral buffered formalin for 10 min at RT, permeabilized with 0.5% Triton X-100 and non-specific binding was blocked with 1% BSA for 1 hr at RT. […]

[4] = system: LRCs (putative MM-CSC); assay: Persistence of label retaining cells (LRC) in melphalan treated 3-D cultures of mobilized blood cells, CFSE flow cytometry; conditions: mobilized blood mononuclear cells, 14 days in 3-D, then treated
Description: In the embodiments illustrated in FIGS. 1-7, 3-D cell culture and other techniques were performed. BMC were isolated from BM aspirates by Ficoll-Paque gradient centrifugation per manufacturer's instructions. Surface coating (rEnd) was created by incubating tissue culture plates with fibronectin/collagen I (1:1) in PBS at a final concentration of 5 μg/1 cm^2 of each protein. Plates were incubated for <30 min at room temperature (RT) and the remaining fluid was removed and was replaced with the rBM layer consisting of the BMC cells in an ECM mixture of Matrigel™/fibronectin (2:1 v/v). For analysis of proliferation and LRCs, cells were labeled with 0.25 μM CFSE for 15 min at 40° C. […]
For CFU assays, CFSE labeled cells were isolated from the 3-D culture and the CFSE+ cells were sorted on an EPICS ALTRA cell sorter, by gating on the live cells based on the forward and side scatter and on the CFSE+ population based on fluorescence intensity in the FL1 channel (see FIG. 6a, below). […] The MethoCult™ cultures were incubated for 14 days and the resulting colonies were counted. […]
FIG. 6a illustrates the flow cytometry profile of the LRCs. The gate for sorting was set to isolate CFSE-high cells and the percentage of LRCs was calculated as the percent of CFSE-high cells in the live cell fraction of the 3-D culture.

| Structure (SMILES) | reduction in clonotypic cells (in words) ([1]; FIG. 4a, p=0.39) | apoptosis in CD138+CD56+ PC population (AnnexinV reactivity) ([2]; CD138+/CD56+ population, FIG. 4b right panel) | decrease in the number of clonotypic cells as measured by RQ-PCR ([1]; p=0.016) [%] | apoptosis in rBM (AnnexinV reactivity) ([2]; overall rBM, post treatment, FIG. 4b, 4c) | effect on stromal compartment of rBM [3] | depletion in 3-D of other hematopoietic cells [4] [%] | enrichment of LRCs in treated 3-D cultures ([4]; CFSE labeled, FIG. 6a) [%] |
| --- | --- | --- | --- | --- | --- | --- | --- |
| CC(C)C[C@H](NC(=O)[C@H](Cc1ccccc1)NC(=O)c1cnccn1)B(O)O [bortezomib] | neither a significant reduction in clonotypic cells | the only cell population subject to bortezomib induced apoptosis | – | – | – | – | – |
| N[C@@H](Cc1ccc(N(CCCl)CCCl)cc1)C(=O)O [melphalan] | – | – | 60 | induced apoptosis of all cell types within the hematopoietic hierarchy | remained intact | ≥ 50 | 50 |
